Measurements published in patent publication US8476264B2, “N-(3-(2-amino-6,6-difluoro-4,4A,5,6,7,7A-hexahydro-cyclopenta[E][1,3]oxazin-4-yl)-phenylamides as BACE1 inhibitors” (Hoffmann-La Roche Inc., priority 2011, dated 2013).

Legend:
[1] = molecular target: T1, CYP2C9 (Homo sapiens, UniProt P11712); test: CYP inhibition assay, CYP2C9; assay type: in vitro ADME; conditions: human liver microsomes, diclofenac 4' hydroxylase; read-out: CYP IC50 2C9
T1 construct: 0.2 mg/ml pooled human liver microsomes; from tissue; host or cells: pooled human liver microsomes
Protocol: Inhibition of cytochromes P450 (CYPs) 2C9, 2D6 and 3A4 was assessed using human liver microsomes and CYP-selective substrate metabolism reactions. 50 μl incubations were made up containing (finally) 0.2 mg/ml pooled human liver microsomes, 5 μM substrate (diclofenac for CYP2C9 [4′ hydroxylase], dextromethorphan for CYP2D6 [O-demethylase] or midazolam for CYP3A4 [1′ hydroxylase]), 0.25 μL DMSO containing test inhibitor and NADPH regenerating system. Test inhibitor concentrations of 50, 16.7, 5.6, 1.9, 0.6 and 0.2 μM were assessed in singlicate. Incubations were pre-warmed to 37° C. for 10 minutes before initiation by addition of NADPH regenerating system. Incubations were quenched after 5 minutes (20 minutes for dextromethorphan) by addition of 50 μl cold acetonitrile containing 20 ng/ml 4-OH-diclofenac-13C6, 20 ng/mL dextrorphan-D3 and 20 ng/mL 1-OH-midazolam-D4. Quenched incubates were stored at −20° C. for at least 1 hour before centrifugation (20,000×g, 20 minutes). Supernatants were removed and diluted 1:1 with water prior to analysis using a RapidFire sample injector system and API4000 mass spectrometer. Peak areas for substrate, metabolite and stable-labelled metabolite standard were determined using MS/MS. The peak area ratios between the metabolite generated by the enzymatic reaction and the internal standard were used in subsequent calculations. The percentage of (DMSO) control activity was calculated for each incubate and IC50 values estimated by non-linear regression. Sulfaphenazole, quinidine or ketoconazole were tested in each CYP2C9, CYP2D6 or CYP3A4 inhibition experiment, respectively, to ensure assay sensitivity and reproducibility. (Validated assays for human cytochrome P450 activities, R. L. Walsky and R. S. Obach, Drug Metabolism and Disposition 32: 647-660, 2004. and S. Fowler and H. Zhang, The AAPS Journal, Vol. 10, No. 2, 410-424, 2008.)

[2] = molecular target: T2, hERG channel (Homo sapiens, UniProt Q12809); test: PatchXpress hERG inhibition assay; assay type: cell-based; conditions: @ 1 μM; CHO cells transfected with hERG, automated patch clamp
T2 construct: expressed in transfected cells; host or cells: CHO cells
Protocol: PatchXpress hERG Inhibition Assay
The detailed method to quantify hERG channel inhibition by the automated patch clamp system PatchXpress® 7000A (Molecular Devices, Sunnyvale, Calif.) has been described by Guo et al. (J of Pharmacol & Tox Methods, (2005) 52(1):123-35). In brief, Chinese hamster ovary (CHO) cells transfected with the human ether-a-go-go-related gene (hERG) was cultured in Ex-cell 302 media supplemented with 10% fetal bovine serum, 2 mM glutamine and 0.25 mg/ml geneticin and maintained in a CO2 incubator at 37° C. For patch clamp electrophysiology, the external buffer contained (in mM): 150 NaCl, 10 Hepes, 4 KCl, 1.2 CaCl2, 1 MgCl2, pH 7.4 adjusted with […] and the internal recording solution contained (in mM): 140 KCl, 6 EGTA, 5 Hepes, MgCl2, 5 ATP-Na2, pH 7.2 adjusted with KOH. Once the cell was loaded in the recording chamber and formed a giga ohm seal with the planar glass electrodes (Sealchip™), a whole-cell configuration was achieved by rupturing the cell membrane. The membrane potential was then clamped at −80 mV and the hERG channel activated by a 1-second depolarizing pulse delivered at 0.1 Hz, the hERG current was measured during the 500 ms-repolarizing pulse to −40 mV. After an acceptable hERG current recording was obtained, the cell was first exposed to 0.3% DMSO as the vehicle control, followed by the test article in three ascending, full-log interval concentrations and finally E-4031 at 1 μM (as the positive control) to block the hERG current completely. […] The inhibition of hERG current at each concentration was normalized to that recorded in the vehicle control, and fitted with Hill equation to calculate IC20 and/or IC50.

[3] = molecular target: T3, BACE1 (Homo sapiens, UniProt P56817); test: Cellular Aβ-lowering assay (Aβ40 ELISA); assay type: cell-based; conditions: HEK293 cells stably expressing human APP wt (APP695); Aβ40 in supernatant after 18-20 hrs; read-out: BACE1 cell act. Aβ40 IC50
T3 construct: Human HEK293 cells which are stably transfected with a vector expressing a cDNA of the human APP wt gene (APP695); endogenous in cells; host or cells: HEK293 stably transfected with human APP695 wt
Outline: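 Secreted Aβ40 in the supernatant was measured by sandwich ELISA (C-terminal Aβ40 capture, HRP-4G8 detection, 450 nm) against an Aβ peptide standard curve.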

T3 sequence (P56817 46-501): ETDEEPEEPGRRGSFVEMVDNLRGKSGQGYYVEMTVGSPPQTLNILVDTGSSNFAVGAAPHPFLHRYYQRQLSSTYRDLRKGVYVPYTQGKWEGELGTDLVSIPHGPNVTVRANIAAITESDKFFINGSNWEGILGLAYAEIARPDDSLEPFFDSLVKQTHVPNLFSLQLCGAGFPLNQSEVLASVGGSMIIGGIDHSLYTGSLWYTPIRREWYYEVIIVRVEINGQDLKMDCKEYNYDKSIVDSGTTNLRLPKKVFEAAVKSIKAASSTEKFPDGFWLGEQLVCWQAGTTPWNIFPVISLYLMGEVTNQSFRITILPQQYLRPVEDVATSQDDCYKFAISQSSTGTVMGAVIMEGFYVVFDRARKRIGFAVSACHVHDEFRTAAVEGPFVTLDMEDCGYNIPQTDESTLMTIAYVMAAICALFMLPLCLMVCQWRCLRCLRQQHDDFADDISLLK
T1 sequence (P11712 whole entry): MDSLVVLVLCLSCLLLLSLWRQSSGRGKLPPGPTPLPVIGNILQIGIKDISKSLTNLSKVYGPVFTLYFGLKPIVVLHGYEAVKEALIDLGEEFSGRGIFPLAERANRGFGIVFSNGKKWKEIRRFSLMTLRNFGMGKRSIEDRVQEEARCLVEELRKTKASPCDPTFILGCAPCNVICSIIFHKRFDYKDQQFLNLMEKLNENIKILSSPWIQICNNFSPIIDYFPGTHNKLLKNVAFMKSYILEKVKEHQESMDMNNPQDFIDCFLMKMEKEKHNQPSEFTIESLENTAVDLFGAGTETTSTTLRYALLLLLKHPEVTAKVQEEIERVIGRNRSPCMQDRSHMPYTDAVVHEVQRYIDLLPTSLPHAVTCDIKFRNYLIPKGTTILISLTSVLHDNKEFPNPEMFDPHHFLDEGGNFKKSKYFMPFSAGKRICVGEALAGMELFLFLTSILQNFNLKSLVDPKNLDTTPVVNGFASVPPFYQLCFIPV
T2 sequence (Q12809 whole entry): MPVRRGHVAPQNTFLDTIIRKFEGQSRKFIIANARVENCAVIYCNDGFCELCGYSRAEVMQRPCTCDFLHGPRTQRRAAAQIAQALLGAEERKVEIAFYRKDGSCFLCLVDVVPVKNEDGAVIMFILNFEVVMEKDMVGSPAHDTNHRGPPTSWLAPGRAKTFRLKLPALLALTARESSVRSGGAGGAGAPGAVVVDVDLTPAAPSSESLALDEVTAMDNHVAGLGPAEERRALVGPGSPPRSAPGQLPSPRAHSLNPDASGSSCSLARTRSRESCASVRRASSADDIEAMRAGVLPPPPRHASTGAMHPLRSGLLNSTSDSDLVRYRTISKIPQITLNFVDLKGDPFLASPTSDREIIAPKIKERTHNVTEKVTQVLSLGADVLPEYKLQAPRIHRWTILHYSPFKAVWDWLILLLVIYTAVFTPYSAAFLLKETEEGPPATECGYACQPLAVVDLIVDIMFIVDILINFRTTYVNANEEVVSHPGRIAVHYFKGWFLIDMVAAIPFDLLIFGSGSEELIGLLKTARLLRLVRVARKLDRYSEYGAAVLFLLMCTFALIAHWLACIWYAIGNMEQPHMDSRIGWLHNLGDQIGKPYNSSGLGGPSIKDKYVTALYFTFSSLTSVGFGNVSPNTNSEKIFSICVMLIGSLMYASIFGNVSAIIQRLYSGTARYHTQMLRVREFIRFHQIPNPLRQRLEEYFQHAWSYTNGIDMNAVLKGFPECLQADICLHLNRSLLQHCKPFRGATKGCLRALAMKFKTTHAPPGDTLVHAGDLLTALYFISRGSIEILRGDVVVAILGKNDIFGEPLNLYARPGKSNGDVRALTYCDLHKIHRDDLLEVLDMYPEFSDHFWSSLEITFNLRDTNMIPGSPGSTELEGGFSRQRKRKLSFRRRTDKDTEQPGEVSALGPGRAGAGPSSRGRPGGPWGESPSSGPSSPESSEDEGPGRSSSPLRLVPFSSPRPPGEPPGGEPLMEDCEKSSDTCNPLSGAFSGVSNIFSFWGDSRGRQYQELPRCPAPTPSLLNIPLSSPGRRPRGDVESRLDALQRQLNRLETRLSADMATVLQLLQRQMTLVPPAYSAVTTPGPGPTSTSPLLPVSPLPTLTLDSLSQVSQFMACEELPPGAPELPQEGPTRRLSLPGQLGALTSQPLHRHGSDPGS

IC50 [1] | IC50 [3] | Structure (SMILES) | hERG inhibition [2]
> 10000 nM | 1.5 nM | N#Cc1ccc(C(=O)Nc2ccc(F)c([C@@]3(CF)N=C(N)O[C@@H]4CC(F)(F)C[C@@H]43)c2)nc1 [Example 3, 5-Cyano-pyridine-2-carboxylic acid [(S)-3-((1R,2R)-2-amino-6,6-difluoro-4-fluoromethyl-4,4a,5,6,7,7a-hexahydro-cyclopenta[e][1,3]oxazin-4-yl)-4-fluoro-phenyl]-amide] | B (less than 15% inhibition @ 1 μM)
> 10000 nM | 16.6 nM | NC1=N[C@](CF)(c2cc(NC(=O)c3ccc(F)cn3)ccc2F)[C@H]2CC(F)(F)C[C@H]2O1 [Example 7, 5-Fluoro-pyridine-2-carboxylic acid [(S)-3-((1R,2R)-2-amino-6,6-difluoro-4-fluoromethyl-4,4a,5,6,7,7a-hexahydro-cyclopenta[e][1,3]oxazin-4-yl)-4-fluoro-phenyl]-amide] | A (less than 20% inhibition @ 1 μM)
> 10000 nM | 7.9 nM | NC1=N[C@](CF)(c2cc(NC(=O)c3cnc(C(F)F)cn3)ccc2F)[C@H]2CC(F)(F)C[C@H]2O1 [Example 24, 5-Difluoromethyl-pyrazine-2-carboxylic acid [(S)-3-((1R,2R)-2-amino-6,6-difluoro-4-fluoromethyl-4,4a,5,6,7,7a-hexahydro-cyclopenta[e][1,3]oxazin-4-yl)-4-fluoro-phenyl]-amide] | B (less than 15% inhibition @ 1 μM)
> 10000 nM | 14.5 nM | N#Cc1ccc(C(=O)Nc2ccc(F)c([C@@]3(C(F)F)N=C(N)O[C@@H]4CC(F)(F)C[C@@H]43)c2)nc1 [Example 36, 5-Cyano-pyridine-2-carboxylic acid [(S)-3-((1R,2R)-2-amino-4-difluoromethyl-6,6-difluoro-4,4a,5,6,7,7a-hexahydro-cyclopenta[e][1,3]oxazin-4-yl)-4-fluoro-phenyl]-amide] | B (less than 15% inhibition @ 1 μM)
> 10000 nM | 30 nM | COc1cnc(C(=O)Nc2ccc(F)c([C@@]3(C(F)F)N=C(N)O[C@@H]4CC(F)(F)C[C@@H]43)c2)cn1 [Example 42, 5-Methoxy-pyrazine-2-carboxylic acid [(S)-3-((1R,2R)-2-amino-4-difluoromethyl-6,6-difluoro-4,4a,5,6,7,7a-hexahydro-cyclopenta[e][1,3]oxazin-4-yl)-4-fluoro-phenyl]-amide] | B (less than 15% inhibition @ 1 μM)
